Test results reported in patent US20150250864A1, “ANTI-CANCER VACCINES” (Board of Regents, The University of Texas System, priority 2012, published 2015).
“Also recorded” adds a separate entry of the source.

Tests used:
[1] = system: IVS cells; assay: IFN-γ ELISPOT with IVS cells (DC pulsed once with HERV-K protein) against MAPs, 9-mer pools or single peptides; assay type: cell-based, human; details: donor 449731, IVS cells, FIG. 15C
Excerpt: FIGS. 15A-C. ELISPOT was employed to determine the production of IFN-γ in twelve 15-mer small pools. (FIG. 15A) Numbers of spots detected in multiple pools are shown for a breast cancer patient diagnosed with IDC (Acc 30) or a patient diagnosed with teratoma (Acc 32). (FIG. 15B) Numbers of spots detected in multiple pools are shown for a patient diagnosed with left breast minute foci of sugg papillary lesion (967092) or IDC (Acc 31). SP 1-12 represents small peptide pools #1-12. Pool 0 contains no peptides (as control). (FIG. 15C) T cells obtained from PBMC stimulated once with HERV-K-specific pulsed homologous B cells were reactive with individual MAPs, pools of 9-mer peptides, or single 9-mer peptides. NP: no peptide control.
IVS were obtained from two donor pairs stimulated with DC pulsed once with HERV-K protein. After 7 days (1-week stimulation), IVS cells were used for ELISPOT with 15-mer peptides (FIGS. 15A-B) or MAPs including MAP73, MAP75-76, MAP82-93, MAP 92-93, and MAP95-96 or 9 mer peptide pools (#1 to 5, #5 to 10, #1 to 10, #12 to 17, #18 to 22) or single peptides (#3, #18, and #4.11; FIG. 15C). Candidate epitopes (#4 and #11) were further identified using IVS generated from DC obtained from cancer patients stimulated with HERV-K antigen in this study.

[2] = system: T cells in PBMCs; assay: IFN-γ release by ELISA from PBMC stimulated with peptides or protein; assay type: cell-based, human; details: stimulated PBMC, FIG. 21A
Excerpt: FIG. 17. T cell stimulation by HERV-K peptides. Peptides (p73-76 and p18-135) or HERV-K SU fusion proteins were used to stimulate PBMC and evaluated in vitro for their ability to stimulate T cells in PBMCs from healthy subjects (ND1007083; left) and/or cancer patients (BC 243; right), based on interferon-γ(IFN-γ) release by ELISA. KLH peptide and GST protein were used as controls. Other negative controls included media only, DMSO, and PBS.
FIG. 18. T cell stimulation by HERV-K peptides. Peptides (p73-76: left; and p18-135: middle) or HERV-K SU fusion proteins (right) were used to stimulate PBMC and evaluated in vitro for their ability to stimulate T cells in PBMCs from healthy subjects and/or cancer patients (BC 243; middle), based on interferon-γ (IFN-γ) release by ELISA. OD values of interferon-γ (IFN-γ) release were compared between normal donors (ND447549, ND1001366, and ND1007083) and cancer patients (OC222, OC 210, OC212, and BC243). OC is ovarian cancer and BC is breast cancer
FIGS. 21A-C. T Cell Stimulation. 9 mer Peptides (HERVK-3, HERVK-4, HERVK-11, and HERVK-18; see Table 1), p73-76 and p18-135 (Table 1 178 and 179), or HERV-K SU fusion proteins were used to stimulate PBMC and evaluated in vitro for their ability to stimulate T cells in PBMCs from healthy subjects and/or cancer patients, based on IFN-γ and Granzyme B release by ELISA. (FIG. 21A) OD values of IFN-γ release were compared in a normal donor (ND291812). (FIG. 21B) OD values of IFN-γ release were compared between a normal donor (ND291817) and an ovarian cancer patient (OC153). (FIG. 21C) OD values of Granzyme B release were compared between a normal donor (ND291817) and an ovarian cancer patient (OC153). Each dot represents an individual clone. Negative controls measured release of effector molecules from cancer cells after treatment with supernatants obtained from PBMCs without stimulation with HERV-K peptides or protein; positive controls were stimulated with PMA/ONO.
Cancer patients were enrolled to evaluate HERV-K as a tumor associated antigen target. Patients provided written informed consent as part of an approved protocol (LAB04-0083) at MD Anderson Cancer Center prior to commencing the studies. Normal healthy donor control blood samples were obtained from Gulf Coast Regional Blood Center, Houston Tex. 40 mL of peripheral blood was obtained from each patient, and peripheral blood mononuclear cells (PBMCs) were isolated by density gradient centrifugation using Histopaque-1077 (Sigma-Aldrich; USA). HLA-A*02 expression in PBMCs obtained from cancer patients and healthy subjects was determined by flow cytometry with PE Mouse anti-human HLA-A2 mAb BB7.2 (BD Pharmingen; San Diego, Calif., USA). Mouse IgG2b was used as an isotype control. PBMCs (5×10^5 cells/well) from either healthy subjects or cancer patients were incubated with Peptide #18-135 ([…]; SEQ ID NO: 178), Peptide #73-76 ([…]; SEQ ID NO: 179) or KLH as control peptide) or proteins (HERV-K env SU protein or GST protein as control) at concentrations of 40 μg/mL in 96-well U-bottom microplates (BD; Franklin Lakes, N.J., USA) in 100 μL of T-cell medium (TCM), consisting of RPMI 1640 (Mediatech; Manassas, Va., USA), 10% human AB serum (Valley Biomedical, Winchester, USA), […] 2-mercaptoethanol, 100 IU/mL interleukin-2 (IL-2), and 0.1 mM MEM nonessential amino acid solution (Invitrogen; Grand Island, N.Y., USA). Half of the TCM was removed and replaced with fresh TCM containing peptides (20 μg/mL) on day 7. After 14 days of culture, the supernatants from cell culture media (PBMC pulsed with peptides or proteins) were harvested and tested for their ability to produce IFN-gamma or IL-2, and granzyme B release was also determined by enzyme-linked immunosorbent assay (ELISA) assay. In order to detect the secreted cytokine in this assay, high-binding plates were coated with 5 μg/ml anti-IFN-γ (Mabtech, Stockholm, Sweden) diluted in PBS buffer at 4° C. overnight. […]

[3] = system: sera obtained from cancer patients; assay: ELISA B cell epitope screening of 15-mer peptides with cancer patient sera; assay type: binding, human; details: single 15-mer peptides of SP8 or SP9
Excerpt: FIG. 7. Several novel epitopes were detected in BC patients by ELISA in SP8 and SP9, including 94, 108, 91, 88, 89, and 95 from pool 9.
B cell epitopes have been screened by ELISA or flow cytometry using 4D1, 4E6, 4E11, 6H5, 6E11, 5F11mAbs or G11D10 or P 1/P2e (single chain antibodies generated from 6H5 (FIGS. 5-6), or the sera obtained from cancer patients (FIGS. 7-8). Several anti-HERV-K monoclonal antibodies were able to recognize some of these peptides.

[4] = system: T cells from HLA A2+ normal donor; assay: IFN-γ ELISPOT, T cells stimulated by 9-mer peptide pool-pulsed homologous B cells; assay type: cell-based, human; details: T cell stimulated 3 times with peptide pool #12 to 22
Excerpt: FIGS. 12A-B. Identification of HLA-A2 T-cell specific peptides using anti-human IFN-γ ELISPOT with T cells from one HLA A2^+ normal donor. (FIG. 12A) T cells, stimulated by peptide pool-pulsed homologous B cells three (3rd T cells) or four (4th T cells) times were reactive with two pools from a HERV-K HLA A2^+9-mer peptide library (pool #1-11 and pool #12-22). NP is no peptide control. (FIG. 12B) Photographs of actual plates for FIG. 12A.
FIGS. 13A-B. Identification of HLA-A2 T cell specific epitopes using anti-human IFN-γ ELISPOT. T cells obtained from PBMC stimulated by peptide pool-pulsed homologous B cells three (3rd T cells) or four (4th T cells) times, were reactive with individual peptides. (FIG. 13A) Image of ELISPOT. (FIG. 13B) The code of peptides evaluated in ELISPOT assays.
FIGS. 14A-C. Summary of number of ELISPOTs from each individual peptide. Numbers of spots detected (pool 1-11, pool 12-22, and pool 23-33) in ELISPOTS with a single peptide are shown. NP contains no peptide (as control). (FIG. 14A) Summary of number of ELISPOTs from each individual peptide including #1, #2, #3, #5, #6, #7, #8, and #9, and peptide pool #1 to #11. (FIG. 14B) Summary of number of ELISPOTs from each individual peptide including #12, #13, #14, #15, #17, #18, #19, #20, #22 and peptide pool #12 to #22. (FIG. 14C) Summary of number of ELISPOTs from each individual peptide including #23, #24, #25, #26, #27, #28, #30, #31, #32, #33, and peptide pool #23 to #33. 4th T cells indicated the T cells had been stimulated with peptide pool 4 times and 3rd T cells indicated the T cells had been stimulated with peptide pool 3 times.
The inventor used epitope mapping to identify responses to HERV-K peptides in breast cancer patients. They chemically synthesized a HERV-K env nine amino acid (9mer) peptide library (33 HLA A2 restricted peptides) and overlapping 15mer peptide library (144 peptides). Preliminary research has identified two pools from the HERV-K env 9mer peptide library that contain potential CD8+ epitopes, using interferon gamma (IFN-γ) enzyme-linked immunosorbent spot (ELISPOT) assay with T cells from one HLA A2^+ normal donor which was stimulated with the 9mer peptide pool-pulsed homologous dendritic cells (DCs).
HLA-2+ patients were identified by flow cytometry using anti-A2 antibody. Activated B cells were cultured from PBMCs stimulated with irradiated 3T3-CD40L-expressing fibroblasts. Normal donor CD8+ T-cell lines were obtained from PBMCs stimulated with autologous activated B cells pulsed with peptide pools (peptides are in 3 pools: #1-11, #12-22, and #23-33); the stimulation was repeated for 3-4 cycles. HERV-K specific T cells generated from normal donor lines were tested for peptide reactivity using IFN-γ ELISPOT assays (FIGS. 12A-B).

[5] = system: TIL obtained from melanoma patient; assay: IFN-γ ELISPOT with TIL from melanoma patient; assay type: cell-based, human

Sequence: ILVCLFCLL [HERVK-11]
- HERV-K specific T cell epitope (IFN-γ ELISPOT) [1]: HERV-K specific T cell epitopes
- IFN-γ release (OD values) [2]: Higher IFN-γ release

Sequence: KRFIFTLIAVIMGLI [15-mer 89]
- B epitope found by ELISA using patient sera [3]: epitopes were found

Sequence: LILVCLFCL [HERVK-4]
- HERV-K specific T cell epitope (IFN-γ ELISPOT) [1]: HERV-K specific T cell epitopes
- IFN-γ release (OD values) [2]: Higher IFN-γ release

Sequence: TLIAVIMGL [HERVK-15]
- IFN-γ ELISPOT spots with individual peptide [4]: numerous spots

Sequence: AVIMGLIAVTATAAV [15-mer 91]
- B epitope found by ELISA using patient sera [3]: epitopes were found

Sequence: SQTITCENCRLLSCI [15-mer 73]
- recognition by TILs (IFN-γ ELISPOT) ([5]; TIL from a melanoma patient): the single peptide in SP7 which was recognized by TILs
- number of IFN-γ spots ([5]; TIL from melanoma patient specimens, FIG. 16A): large number of spots

Sequence: GVALHSSVQSVNFVN [15-mer 95]
- B epitope found by ELISA using patient sera [3]: epitopes were found

Sequence: LMSLEHRFQLQCDWN [15-mer 108]
- B epitope found by ELISA using patient sera [3]: epitopes were found; also recorded: the only active epitope in each patient's serum

Sequence: LNRSKRFIFTLIAVI [15-mer 88]
- B epitope found by ELISA using patient sera [3]: epitopes were found

Sequence: AAVAGVALHSSVQSV [15-mer 94]
- B epitope found by ELISA using patient sera [3]: epitopes were found
